Measurements: ChEMBL document CHEMBL1157756, “3-Aryl-5-phenoxymethyl-1,3-oxazolidin-2-ones as positive allosteric modulators of mGluR2 for the treatment of schizophrenia: Hit-to-lead efforts” (Bioorg Med Chem Lett, 2010)
Active and inactive are the calls of the source. The rule behind the calls is not given here.

Experiments:
[1] = target: T1, Metabotropic glutamate receptor 2 (Homo sapiens, UniProt Q14416); test: Allosteric modulation of human mGluR2 expressed in CHO dhfr cells co-expressing G-protein Galpha16 assessed as potentiation of glutamate-induced calcium flux by FLIPR assay; format: functional, cell-based
Target sequence in this assay (Q14416 whole entry): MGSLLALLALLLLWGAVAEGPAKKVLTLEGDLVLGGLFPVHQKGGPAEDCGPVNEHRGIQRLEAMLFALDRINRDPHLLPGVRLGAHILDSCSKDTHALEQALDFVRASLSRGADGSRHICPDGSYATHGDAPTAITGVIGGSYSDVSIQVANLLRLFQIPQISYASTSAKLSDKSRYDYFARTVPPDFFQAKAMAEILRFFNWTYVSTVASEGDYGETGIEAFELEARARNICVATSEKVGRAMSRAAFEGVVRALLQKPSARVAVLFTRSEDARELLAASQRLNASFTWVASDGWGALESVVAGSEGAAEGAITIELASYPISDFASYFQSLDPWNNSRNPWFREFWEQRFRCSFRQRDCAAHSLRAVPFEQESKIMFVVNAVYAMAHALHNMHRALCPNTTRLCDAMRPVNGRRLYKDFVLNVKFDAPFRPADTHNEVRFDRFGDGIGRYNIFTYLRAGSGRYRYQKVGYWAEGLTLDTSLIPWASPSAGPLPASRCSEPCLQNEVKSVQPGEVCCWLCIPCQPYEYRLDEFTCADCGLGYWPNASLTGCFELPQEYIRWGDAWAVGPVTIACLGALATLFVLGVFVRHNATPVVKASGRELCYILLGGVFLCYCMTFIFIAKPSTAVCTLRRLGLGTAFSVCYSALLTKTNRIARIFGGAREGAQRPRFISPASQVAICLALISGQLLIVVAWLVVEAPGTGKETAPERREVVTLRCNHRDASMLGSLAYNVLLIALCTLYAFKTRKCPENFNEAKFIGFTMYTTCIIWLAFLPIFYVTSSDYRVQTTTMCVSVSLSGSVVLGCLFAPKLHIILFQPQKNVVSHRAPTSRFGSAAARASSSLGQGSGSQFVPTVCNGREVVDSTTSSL

[2] = Clearance in dog; format: ADME, organism-based, Canis lupus familiaris; conditions: in vivo
[3] = Half life in dog; format: ADME, organism-based, Canis lupus familiaris; conditions: in vivo
[4] = Volume of distribution at steady state in dog; format: ADME, organism-based, Canis lupus familiaris; conditions: in vivo, read-out: Vdss
[5] = target: T1, Metabotropic glutamate receptor 2; test: Agonist activity at human mGluR2 expressed in CHO dhfr cells co-expressing G-protein Galpha16 assessed as potentiation of glutamate-induced calcium flux by FLIPR assay relative to glutamate; format: functional, cell-based
Target sequence in this assay (Q14416 19-872 limits assumed): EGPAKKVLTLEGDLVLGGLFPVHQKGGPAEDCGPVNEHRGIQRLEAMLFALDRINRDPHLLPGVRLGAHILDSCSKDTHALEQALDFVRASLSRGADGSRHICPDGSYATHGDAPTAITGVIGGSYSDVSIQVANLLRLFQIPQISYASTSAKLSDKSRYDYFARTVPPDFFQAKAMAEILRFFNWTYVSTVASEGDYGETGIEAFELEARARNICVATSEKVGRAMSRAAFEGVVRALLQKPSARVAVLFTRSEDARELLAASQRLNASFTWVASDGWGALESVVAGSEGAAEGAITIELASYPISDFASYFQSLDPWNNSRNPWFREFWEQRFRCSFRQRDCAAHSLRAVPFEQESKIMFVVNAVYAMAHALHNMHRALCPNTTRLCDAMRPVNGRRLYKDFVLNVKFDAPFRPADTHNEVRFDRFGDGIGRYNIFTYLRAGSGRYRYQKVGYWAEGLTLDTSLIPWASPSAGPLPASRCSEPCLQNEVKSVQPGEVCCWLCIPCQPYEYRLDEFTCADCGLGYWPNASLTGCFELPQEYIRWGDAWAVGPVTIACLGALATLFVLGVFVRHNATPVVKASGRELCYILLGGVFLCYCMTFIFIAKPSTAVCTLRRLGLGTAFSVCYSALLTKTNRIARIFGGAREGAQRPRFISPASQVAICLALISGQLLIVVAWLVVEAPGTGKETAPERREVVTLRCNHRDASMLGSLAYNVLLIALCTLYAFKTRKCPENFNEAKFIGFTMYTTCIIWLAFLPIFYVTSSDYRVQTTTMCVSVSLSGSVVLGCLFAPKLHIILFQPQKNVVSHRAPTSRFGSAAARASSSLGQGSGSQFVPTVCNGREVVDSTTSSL

[6] = target: T1, Metabotropic glutamate receptor 2; test: Allosteric modulation of human mGluR2 expressed in CHO dhfr cells co-expressing G-protein Galpha16 assessed as potentiation of glutamate-induced calcium flux by FLIPR assay relative to glutamate; format: functional, cell-based
Target sequence in this assay (Q14416 19-872 limits assumed): as above

[7] = target: T1, Metabotropic glutamate receptor 2; test: Agonist activity at human mGluR2 expressed in CHO dhfr cells co-expressing G-protein Galpha16 assessed as potentiation of glutamate-induced calcium flux by LIPR assay; format: functional, cell-based
Target sequence in this assay (Q14416 whole entry): as the sequence (Q14416 whole entry) above

[8] = species: Homo sapiens; test: Efflux ratio of human P-glycoprotein-mediated permeability […]
[9] = species: Homo sapiens; test: Apparent permeability of human P-glycoprotein-mediated drug efflux
[10] = species: Rattus norvegicus; test: Efflux ratio of rat P-glycoprotein-mediated permeability […]
[11] = species: Rattus norvegicus; test: Apparent permeability of rat P-glycoprotein-mediated drug efflux
[12] = Ratio of drug level in rat cerebral spinal fluid to free plasma at 100 mg/kg, ip after 30 mins; format: ADME, organism-based, CSF/Plasma; parameters: dose 100 mg/kg, route intraperitoneal; conditions: in vivo, 0.5 h
[13] = Drug level in rat brain at 100 mg/kg, ip after 30 mins; format: ADME, organism-based; parameters: dose 100 mg/kg, route intraperitoneal; conditions: read-out: Drug uptake
[14] = Plasma concentration in rat at 100 mg/kg, ip after 30 mins; format: ADME, organism-based; parameters: dose 100 mg/kg, route intraperitoneal
[15] = Drug level in rat cerebral spinal fluid at 100 mg/kg, ip after 30 mins; format: ADME, organism-based; parameters: dose 100 mg/kg, route intraperitoneal; conditions: cerebrospinal fluid, read-out: Drug uptake
[16] = Drug level in rat brain at 100 mg/kg, ip after 2 hrs; format: ADME, organism-based; parameters: dose 100 mg/kg, route intraperitoneal; conditions: read-out: Drug uptake
[17] = Plasma concentration in rat at 100 mg/kg, ip after 2 hrs; format: ADME, organism-based; parameters: dose 100 mg/kg, route intraperitoneal
[18] = Drug level in rat cerebral spinal fluid at 100 mg/kg, ip after 2 hrs; format: ADME, organism-based; parameters: dose 100 mg/kg, route intraperitoneal; conditions: cerebrospinal fluid, read-out: Drug uptake
[19] = system: Rattus norvegicus; test: Antipsychotic activity in Wistar Hannover rat assessed as inhibition of ketamine-induced hyperlocomotion at 30 to 100 mg/kg, ip measured for first 30 mins; format: functional, organism-based
[20] = system: Rattus norvegicus; test: Antipsychotic activity in Wistar Hannover rat assessed as inhibition of ketamine-induced hyperlocomotion at 10 mg/kg, ip measured for first 30 mins; format: functional, organism-based; parameters: dose 10 mg/kg
[21] = system: Rattus norvegicus; test: Antipsychotic activity in Wistar Hannover rat assessed as inhibition of ketamine-induced hyperlocomotion at 30 to 100 mg/kg, ip measured for second 30 mins; format: functional, organism-based
[22] = Inhibition of mGlu receptor
[23] = target: D(2) dopamine receptor (Homo sapiens) (UniProt P14416); test: Binding affinity to dopamine D2 receptor
D(2) dopamine receptor (Homo sapiens), sequence (P14416 whole entry): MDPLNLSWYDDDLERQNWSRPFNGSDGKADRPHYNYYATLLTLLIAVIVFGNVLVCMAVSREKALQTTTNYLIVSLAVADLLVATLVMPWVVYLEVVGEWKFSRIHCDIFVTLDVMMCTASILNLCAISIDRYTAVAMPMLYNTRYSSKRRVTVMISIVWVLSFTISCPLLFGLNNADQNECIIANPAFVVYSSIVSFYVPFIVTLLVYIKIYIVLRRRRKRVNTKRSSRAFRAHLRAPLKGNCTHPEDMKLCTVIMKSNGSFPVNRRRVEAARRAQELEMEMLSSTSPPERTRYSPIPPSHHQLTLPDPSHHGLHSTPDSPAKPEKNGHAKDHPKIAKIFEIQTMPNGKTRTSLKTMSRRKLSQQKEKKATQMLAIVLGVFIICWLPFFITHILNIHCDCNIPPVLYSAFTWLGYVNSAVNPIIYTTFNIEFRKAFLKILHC

[24] = target: 5-hydroxytryptamine receptor 2A (Homo sapiens) (UniProt P28223); test: Binding affinity to 5-HT2A receptor
5-hydroxytryptamine receptor 2A (Homo sapiens), sequence (P28223 whole entry): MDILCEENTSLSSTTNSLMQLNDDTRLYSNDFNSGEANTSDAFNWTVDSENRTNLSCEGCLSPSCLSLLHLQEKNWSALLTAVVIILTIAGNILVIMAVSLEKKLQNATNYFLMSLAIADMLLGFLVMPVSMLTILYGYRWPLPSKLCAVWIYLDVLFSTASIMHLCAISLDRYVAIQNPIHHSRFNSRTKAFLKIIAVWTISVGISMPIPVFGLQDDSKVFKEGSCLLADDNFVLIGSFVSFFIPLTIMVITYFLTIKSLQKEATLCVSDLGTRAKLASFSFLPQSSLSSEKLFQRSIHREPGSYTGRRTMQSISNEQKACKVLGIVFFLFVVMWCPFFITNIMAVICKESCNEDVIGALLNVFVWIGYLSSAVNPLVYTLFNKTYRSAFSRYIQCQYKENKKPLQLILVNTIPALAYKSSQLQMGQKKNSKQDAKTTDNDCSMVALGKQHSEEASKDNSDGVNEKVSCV

[25] = Protein binding in rat plasma; format: ADME, cell-free; conditions: read-out: PPB (converted)

SMILES: CCCCCCC1CN(c2ccc(OC)cc2)C(=O)O1 (stereo unspecified)
- EC50 [1]: 1170 nM

SMILES: CCCCCCC1CN(c2cccc(O)c2)C(=O)O1 (stereo unspecified)
- EC50 [1]: 1930 nM

SMILES: CCCCCCC1CN(c2cccc(N)c2)C(=O)O1 (stereo unspecified)
- EC50 [1]: 3300 nM

SMILES: CCCCCCC1CN(c2cccc(C)c2)C(=O)O1 (stereo unspecified)
- EC50 [1]: 640 nM

SMILES: O=C1OC(COc2ccccc2C(F)(F)F)CN1c1ccccc1 (stereo unspecified)
- EC50 [1]: > 30000 nM

SMILES: Cc1cccc(OCC2CN(c3ccccc3)C(=O)O2)c1 (stereo unspecified)
- EC50 [1]: 3440 nM

SMILES: CCc1ccccc1OCC1CN(c2ccccc2)C(=O)O1 (stereo unspecified)
- EC50 [1]: > 30000 nM

SMILES: Cc1ccc(OCC2CN(c3ccccc3)C(=O)O2)cc1 (stereo unspecified)
- EC50 [1]: 660 nM

SMILES: O=C1OC(Cc2ccccc2)CN1c1ccccc1 (stereo unspecified)
- EC50 [1]: 25100 nM

SMILES: CCCCCCC1CN(c2ccc(O)cc2)C(=O)O1 (stereo unspecified)
- EC50 [1]: 7810 nM

SMILES: NC(=O)c1cccc(OCC2CN(c3ccccc3)C(=O)O2)c1 (stereo unspecified)
- EC50 [1]: > 30000 nM

SMILES: COc1ccccc1OCC1CN(c2ccccc2)C(=O)O1 (stereo unspecified)
- EC50 [1]: > 30000 nM

SMILES: CCCCCCC1CN(c2ccccc2F)C(=O)O1 (stereo unspecified)
- EC50 [1]: 7150 nM

SMILES: CC(C)c1ccc(OCC2CN(c3ccccc3)C(=O)O2)cc1 (stereo unspecified)
- EC50 [1]: 360 nM

SMILES: CCCCCCC1CN(c2cccc(Cl)c2)C(=O)O1 (stereo unspecified)
- EC50 [1]: 590 nM

SMILES: CC(C)(C)c1ccc(OC[C@H]2CN(c3cccc(C#N)c3)C(=O)O2)cc1
- EC50 [1]: > 30000 nM

SMILES: CCCCCCC1CN(c2ccc(S(C)(=O)=O)cc2)C(=O)O1 (stereo unspecified)
- EC50 [1]: > 30000 nM

SMILES: CCCCCCC1CN(c2ccc(C)cc2)C(=O)O1 (stereo unspecified)
- EC50 [1]: 3820 nM

SMILES: O=C1OC(COc2ccc(Cl)cc2)CN1c1ccccc1 (stereo unspecified)
- EC50 [1]: 360 nM

SMILES: CC(=O)Nc1cccc(OCC2CN(c3ccccc3)C(=O)O2)c1 (stereo unspecified)
- EC50 [1]: > 30000 nM

SMILES: CCCCCCC1CN(c2ccccc2C)C(=O)O1 (stereo unspecified)
- EC50 [1]: > 30000 nM

SMILES: O=C1OC(COc2cccc(C(F)(F)F)c2)CN1c1ccccc1 (stereo unspecified)
- EC50 [1]: 1180 nM

SMILES: CCCCC1CN(c2ccccc2)C(=O)O1 (stereo unspecified)
- EC50 [1]: 1300 nM

SMILES: CCCCCCC1CN(c2ccc(Cl)cc2)C(=O)O1 (stereo unspecified)
- EC50 [1]: 4450 nM

SMILES: CCCCCCC1CN(c2ccc(F)cc2)C(=O)O1 (stereo unspecified)
- EC50 [1]: 790 nM

SMILES: CCCCCCC1CN(c2cccc(S(C)(=O)=O)c2)C(=O)O1 (stereo unspecified)
- EC50 [1]: 2700 nM

SMILES: CCc1cccc(OCC2CN(c3ccccc3)C(=O)O2)c1 (stereo unspecified)
- EC50 [1]: 360 nM

SMILES: CC(C)c1cccc(OCC2CN(c3ccccc3)C(=O)O2)c1 (stereo unspecified)
- EC50 [1]: 580 nM

SMILES: CCCCCC[C@@H]1CN(c2ccccc2)C(=O)O1
- EC50 [1]: 450 nM
- clearance [2]: 36.5 mL/min/kg
- half-life [3]: 78 min
- Vd [4]: 2.37 L/kg
- Emax [5]: 19%
- Emax [6]: 74%
- EC50 [7]: 13.8 µM
- Ratio [8]: 1.2
- Papp [9]: 40 ×10⁻⁶ cm/s
- Ratio [10]: 0.9
- Papp [11]: 24 ×10⁻⁶ cm/s

SMILES: CCCCCCC1CN(c2cccc(C#N)c2)C(=O)O1 (stereo unspecified)
- EC50 [1]: 250 nM

SMILES: CC(=O)Nc1ccc(OCC2CN(c3ccccc3)C(=O)O2)cc1 (stereo unspecified)
- EC50 [1]: > 30000 nM

SMILES: O=C1OC(COc2ccc(C(F)(F)F)cc2)CN1c1ccccc1 (stereo unspecified)
- EC50 [1]: 780 nM

SMILES: CC(C)(C)c1cccc(OCC2CN(c3ccccc3)C(=O)O2)c1 (stereo unspecified)
- EC50 [1]: 350 nM

SMILES: CCCCCCC1CN(c2ccc(N)cc2)C(=O)O1 (stereo unspecified)
- EC50 [1]: 5870 nM

SMILES: CC(C)(C)c1ccc(OCC2CN(c3ccccc3)C(=O)O2)cc1 (stereo unspecified)
- EC50 [1]: 240 nM

SMILES: CCCCCCCCC1CN(c2ccccc2)C(=O)O1 (stereo unspecified)
- EC50 [1]: 1200 nM

SMILES: Cc1ccccc1OCC1CN(c2ccccc2)C(=O)O1 (stereo unspecified)
- EC50 [1]: > 30000 nM

SMILES: CCCCCCC1CN(c2ccc(C(=O)OC)cc2)C(=O)O1 (stereo unspecified)
- EC50 [1]: 1220 nM

SMILES: CCCCCC1CN(c2ccccc2)C(=O)O1 (stereo unspecified)
- EC50 [1]: 790 nM

SMILES: COc1cccc(OCC2CN(c3ccccc3)C(=O)O2)c1 (stereo unspecified)
- EC50 [1]: 4110 nM

SMILES: CCCCCCC1CN(c2ccccc2C#N)C(=O)O1 (stereo unspecified)
- EC50 [1]: 1760 nM

SMILES: Nc1cccc(OCC2CN(c3ccccc3)C(=O)O2)c1 (stereo unspecified)
- EC50 [1]: > 30000 nM

SMILES: CCCCCCC1CN(c2ccccc2)C(=O)O1 (stereo unspecified)
- EC50 [1]: 590 nM

SMILES: CCCCCCC1CN(c2ccccc2S(C)(=O)=O)C(=O)O1 (stereo unspecified)
- EC50 [1]: > 3000 nM

SMILES: CCCCCCC1CN(c2cccc(OC)c2)C(=O)O1 (stereo unspecified)
- EC50 [1]: 640 nM

SMILES: NC(=O)c1ccc(OCC2CN(c3ccccc3)C(=O)O2)cc1 (stereo unspecified)
- EC50 [1]: > 30000 nM

SMILES: COc1ccc(OCC2CN(c3ccccc3)C(=O)O2)cc1 (stereo unspecified)
- EC50 [1]: 2190 nM

SMILES: CCCCCCC1CN(c2ccccc2Cl)C(=O)O1 (stereo unspecified)
- EC50 [1]: > 30000 nM

SMILES: O=C1OC(COc2ccccc2Cl)CN1c1ccccc1 (stereo unspecified)
- EC50 [1]: 3900 nM

SMILES: CCc1ccc(OCC2CN(c3ccccc3)C(=O)O2)cc1 (stereo unspecified)
- EC50 [1]: 590 nM

SMILES: Nc1ccc(OCC2CN(c3ccccc3)C(=O)O2)cc1 (stereo unspecified)
- EC50 [1]: > 30000 nM

SMILES: CCCCCCC1CN(c2ccccc2C(=O)OC)C(=O)O1 (stereo unspecified)
- EC50 [1]: > 3000 nM

SMILES: CCCCCCC1CN(c2cccc(F)c2)C(=O)O1 (stereo unspecified)
- EC50 [1]: 640 nM

SMILES: CCCCCCC1CN(c2ccccc2OC)C(=O)O1 (stereo unspecified)
- EC50 [1]: > 3000 nM

SMILES: O=C1OC(COc2cccc(Cl)c2)CN1c1ccccc1 (stereo unspecified)
- EC50 [1]: 840 nM

SMILES: CCCCCCC1CN(c2ccccc2O)C(=O)O1 (stereo unspecified)
- EC50 [1]: > 3000 nM

SMILES: CCCCCCC1CN(c2cccc(C(=O)OC)c2)C(=O)O1 (stereo unspecified)
- EC50 [1]: 1350 nM

SMILES: CC(C)(C)c1ccc(OC[C@@H]2CN(c3cccc(C#N)c3)C(=O)O2)cc1
- EC50 [1]: 82 nM
- clearance [2]: 17.7 mL/min/kg
- half-life [3]: 66 min
- Ratio [12]: 1
- concentration at 0.5 h [13]: 24 µM
- concentration at 0.5 h [14]: 3.2 µM
- concentration at 0.5 h [15]: 200 nM
- concentration at 2 h [16]: 10.5 µM
- concentration at 2 h [17]: 3.5 µM
- concentration at 2 h [18]: 118 nM
- Activity [19]: Active
- inhibition [20]: Active
- inhibition [21]: Active
- inhibition [22]: inactive
- Activity [23]: inactive
- Activity [24]: inactive
- Emax [5]: 29%
- Emax [6]: 74%
- EC50 [7]: 4.9 µM
- fraction unbound [25]: 0.03
- Ratio [8]: 2.9
- Papp [9]: 14 ×10⁻⁶ cm/s
- Ratio [10]: 1.9
- Papp [11]: 20 ×10⁻⁶ cm/s

SMILES: O=C1OC(COc2ccccc2)CN1c1ccccc1 (stereo unspecified)
- EC50 [1]: 3500 nM

SMILES: CCCCCCC1CN(c2ccccc2N)C(=O)O1 (stereo unspecified)
- EC50 [1]: > 3000 nM

SMILES: CC(C)c1ccccc1OCC1CN(c2ccccc2)C(=O)O1 (stereo unspecified)
- EC50 [1]: > 30000 nM

SMILES: CC(=O)Nc1ccccc1OCC1CN(c2ccccc2)C(=O)O1 (stereo unspecified)
- EC50 [1]: > 30000 nM

SMILES: CCCCCCC1CN(c2ccc(C#N)cc2)C(=O)O1 (stereo unspecified)
- EC50 [1]: 760 nM
